Measurements reported in paper PMC12325182, “Discovery of novel and potent celastrol derivatives as PRDX1 inhibitors for cancer therapy through structure-based virtual screening” (Frontiers in Pharmacology, 2025).

Tests used:
Format in all cases: biochemical
[1] = target: EPHB1 (Homo sapiens, UniProt P54762); assay: Kinase selectivity assay
Method in brief: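 Kinase selectivity testing was performed by an external contract lab, in which CP1 was assayed against related peroxiredoxins and assorted kinases to gauge specificity relative to PRDX1.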

[2] = target: T1, DDR1 (Homo sapiens, UniProt Q08345); assay: Kinase selectivity assay; details: target DDR1; read-out: CP1 IC50
T1 construct: ICE Biosciences (Beijing, China), ran the assays
T1 sequence (Q08345 19-913): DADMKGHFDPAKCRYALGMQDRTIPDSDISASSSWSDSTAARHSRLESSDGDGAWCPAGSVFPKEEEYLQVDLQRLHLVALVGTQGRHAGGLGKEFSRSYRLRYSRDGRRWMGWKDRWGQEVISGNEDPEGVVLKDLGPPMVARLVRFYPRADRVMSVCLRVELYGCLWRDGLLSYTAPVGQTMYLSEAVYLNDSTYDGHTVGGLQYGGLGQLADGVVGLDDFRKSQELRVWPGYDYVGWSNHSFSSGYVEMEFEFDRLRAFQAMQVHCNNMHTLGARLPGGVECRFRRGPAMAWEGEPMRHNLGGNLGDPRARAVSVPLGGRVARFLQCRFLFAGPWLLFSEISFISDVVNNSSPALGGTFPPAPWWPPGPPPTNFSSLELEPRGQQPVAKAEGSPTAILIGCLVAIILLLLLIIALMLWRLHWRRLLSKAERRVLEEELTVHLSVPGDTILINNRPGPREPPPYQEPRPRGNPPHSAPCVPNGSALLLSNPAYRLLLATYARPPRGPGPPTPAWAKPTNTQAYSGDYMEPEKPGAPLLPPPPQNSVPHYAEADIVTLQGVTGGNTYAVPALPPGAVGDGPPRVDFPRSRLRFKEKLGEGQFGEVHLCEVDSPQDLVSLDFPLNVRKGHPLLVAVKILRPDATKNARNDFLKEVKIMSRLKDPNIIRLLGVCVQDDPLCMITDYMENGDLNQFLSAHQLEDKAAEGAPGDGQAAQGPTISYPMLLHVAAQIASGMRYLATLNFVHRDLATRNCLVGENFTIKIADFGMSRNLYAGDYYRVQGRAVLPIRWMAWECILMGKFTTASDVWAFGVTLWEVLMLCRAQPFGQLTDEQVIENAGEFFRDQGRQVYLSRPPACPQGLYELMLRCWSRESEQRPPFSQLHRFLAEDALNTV
Method in brief: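 CP1 counter-screen: other PRDX isoforms plus a kinase panel, outsourced; PRDX1 is the intended target.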

[3] = target: other PRDX family members and a panel of kinases; assay: Kinase selectivity assay (whole panel); details: whole panel of Table S1; read-out: IC50 against other PRDX family members and a panel of kinases
Method: The selectivity of CP1 for PRDX1 was evaluated through kinase selectivity assays against other PRDX family members and a panel of kinases. The experiments were conducted by ICE Biosciences (Beijing, China).

Measured: IC50

Chain of EPHB1 (P54762 18-984): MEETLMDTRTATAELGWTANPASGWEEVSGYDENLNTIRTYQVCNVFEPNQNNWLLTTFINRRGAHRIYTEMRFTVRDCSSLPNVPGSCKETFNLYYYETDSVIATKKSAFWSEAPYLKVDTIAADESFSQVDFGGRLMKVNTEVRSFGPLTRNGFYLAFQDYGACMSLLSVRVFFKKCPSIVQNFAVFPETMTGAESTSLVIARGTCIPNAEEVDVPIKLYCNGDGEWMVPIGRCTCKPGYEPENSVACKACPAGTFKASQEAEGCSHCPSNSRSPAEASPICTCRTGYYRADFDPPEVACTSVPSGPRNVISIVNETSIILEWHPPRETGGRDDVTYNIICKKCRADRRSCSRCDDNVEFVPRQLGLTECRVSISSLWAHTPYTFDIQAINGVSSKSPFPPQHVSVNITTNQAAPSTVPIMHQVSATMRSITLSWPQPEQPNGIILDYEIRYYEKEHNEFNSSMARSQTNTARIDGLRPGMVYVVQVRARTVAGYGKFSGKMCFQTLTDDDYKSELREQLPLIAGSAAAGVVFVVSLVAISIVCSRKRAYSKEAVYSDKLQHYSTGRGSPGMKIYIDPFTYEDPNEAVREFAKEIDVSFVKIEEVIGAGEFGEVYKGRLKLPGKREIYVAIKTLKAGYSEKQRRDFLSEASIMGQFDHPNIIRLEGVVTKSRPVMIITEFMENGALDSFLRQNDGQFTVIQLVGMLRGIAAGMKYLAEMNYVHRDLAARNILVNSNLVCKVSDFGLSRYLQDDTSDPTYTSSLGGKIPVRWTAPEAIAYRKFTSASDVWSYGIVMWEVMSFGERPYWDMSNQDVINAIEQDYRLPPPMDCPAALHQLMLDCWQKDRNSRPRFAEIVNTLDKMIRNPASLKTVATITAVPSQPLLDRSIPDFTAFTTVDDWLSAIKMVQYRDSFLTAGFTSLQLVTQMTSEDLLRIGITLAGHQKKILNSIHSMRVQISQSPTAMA

CC1=C(CC(=O)/C=C/c2cccc(CO)c2)C(=O)C=C2C1=CC=C1[C@@]2(C)CC[C@@]2(C)C3C[C@](C)(C(=O)CCc4nc(C(O)C(O)O)c(C)nc4C)CC[C@]3(C)CC[C@]12C (stereo partly drawn) [CP1]
> 30 µM: all assays above
